Assay results reported in patent publication US9629855B2, “Pharmaceutical composition for treatment of eye pain, containing PGE2 synthesis inhibitor” (INDUSTRY-ACADEMIC COOPERATION FOUNDATION, YONSEI UNIVERSITY, priority 2011, dated 2017).

test system: patients having an ocular pain symptom; assay: Number of eye blinks after intraocular administration of PGE2 synthesis inhibitors to eye pain patients; assay type: in vivo, human; settings: blinks for 5 min
Experimental: PGE2 synthesis inhibitors were administered intraocularly to patients having an ocular pain symptom, and whether the number of eye blinks of the patient group was reduced compared to that of a control group was examined. The PGE2 synthesis inhibitors used were 15-deoxy-Δ^12,14-PGJ2, exisulind, NS-398, leukotriene C4, mk-886, analogues of MK-886, MF63, thienopyrrole, naphthalene disulphonamide, resveratrol, and γ-hydroxybutenolide.
As a result, it was shown that, when the PGE synthesis inhibitors were administered intraocularly, they reduced ocular discomfort to thereby reduce the number of eye blinks (Table 2).

Compared with Oc1ccc(C=Cc2cc(O)cc(O)c2)cc1 [Resveratrol], CC1=C(CC(=O)O)c2cc(F)ccc2/C1=C\c1ccc(S(C)(=O)=O)cc1 [Exisulind] is lower in “Number of eye blinks of treated group (n = 10) for 5 min” value (“Number of eye blinks … for 5 min” for short): 17 for the first, 14 for the second.

c1cc2sccc2[nH]1 [Thienopyrrole] and CS(=O)(=O)Nc1ccc([N+](=O)[O-])cc1OC1CCCCC1 [NS-398] are the same in “Number of eye blinks … for 5 min” value: 13 for the first, 13 for the second.

First: CCCCC/C=C\C\C=C/C=C/C=C/[C@@H](SC[C@H](NC(=O)CC[C@H](N)C(=O)O)C(=O)NCC(=O)O)[C@@H](O)CCCC(=O)O [Leukotriene C4]
Second: CCCCC/C=C/C=C1/C(=O)C=C[C@@H]1C/C=C\CCCC(=O)O [15-deoxy-Δ^12,14-PGJ2]
The “Number of eye blinks … for 5 min” value of the first is higher: 17 for the first, 11 for the second.

CC(C)c1ccc2c(c1)c(SC(C)(C)C)c(CC(C)(C)C(=O)O)n2Cc1ccc(Cl)cc1 [mk-886] was tested, and the “Number of eye blinks … for 5 min” value was 15.

test system: patients having an ocular pain symptom; assay: Number of eye blinks after intraocular administration of selective COX2 inhibitors to ocular pain patients; assay type: in vivo, human; settings: control group = Diclofenac

First: CS(=O)(=O)Nc1ccc([N+](=O)[O-])cc1Oc1ccccc1 [Nimesulud]
Second: Cc1cnc(NC(=O)C2=C(O)c3ccccc3S(=O)(=O)N2C)s1 [Meloxicam]
The “Number of eye blinks of treated group (n = 3)” value of the first is lower: 16 for the first, 20 for the second.

With CCN1CC/C(=C\c2cc(C(C)(C)C)c(O)c(C(C)(C)C)c2)S1(=O)=O [S-2474, 3,5-di-tert-buryl-4-hydroxybenzylidene] the “Number of eye blinks of treated group (n = 3)” value was 15.
